In US20240024273A1, “TOPICAL ADMINISTRATION OF 2-(DIETHYLAMINO)ETHYL 2-(4-ISOBUTYLPHENYL)PROPRIONATE FOR TREATMENT OF DISEASES” (TECHFIELDS PHARMA CO., LTD., priority 2020, published 2024):
Where two headings read alike, the source gives them in different places.

Assays:
[1] = Phase 1 clinical study: plasma pharmacokinetics of prodrug and ibuprofen; assay type: in vivo, human; settings: 70 mg; for AUC0-12 / Cmax: human, plasma; for AUC0-12: read-out: prodrug AUC0-12, geometric mean; for Cmax: read-out: prodrug Cmax, geometric mean
Protocol: Following a 5-day washout period, 2-(diethylamino)ethyl 2-(4-isobutylphenyl)propionate was administered b.i.d. during Days 6-11, and a morning dose only was administered to Day 12. Blood samples were collected for PK analysis over the 120-hour post-dose period following the Day 12 dose. Additionally, pre-dose blood samples were collected on Day 7 through Day 11 to evaluate steady-state status.
The same study procedures were followed as described in Part 1.
For single dose PK, serial blood samples were collected on Day 1 dose at the following time points: 0 (pre-dose), 0.25, 0.5, 0.75, 1, 1.5, 2, 2.5, 3, 4, 5, 6, 8, 10, 12, 18, 24, 48, 72, 96 and 120 hours post-dose.
For multiple-dose PK, serial blood samples were collected on Day 12 at the following time points: 0 (pre-dose), 0.25, 0.5, 0.75, 1, 1.5, 2, 2.5, 3, 4, 5, 6, 8, 10, 12, 18, 24, 48, 72, 96 and 120 hours post-dose.
The relative bioavailability of the single dose 70 mg topical application vs. 70 mg spray application was determined based on AUCtau, AUCinf and Cmax. The 90% confidence intervals (CIs) on the ratio of topical application vs. spray application were calculated.

Osteoarthritis [2] = settings: cited from earlier work
Osteoarthritis [3] = settings: n=107; placebo −33.6; cited from earlier work
[4] = test system: osteoarthritis of the knee; settings: cited from earlier work
[5] = topical or ocular, Day 1, 70 mg topical
[6] = topical or ocular, Day 12, 70 mg topical

CCN(CC)CCOC(=O)C(C)c1ccc(CC(C)C)cc1.Cl (stereo not drawn) [2-(diethylamino)ethyl 2-(4-isobutylphenyl)propionate hydrochloride]
prodrug AUC0-12 ratio Topical/Spray ([1]; Day 1): 3.28
prodrug Cmax ratio Topical/Spray ([1]; Day 1): 1.34
prodrug AUC0-12 ratio Topical/Spray ([1]; Day 12): 0.91
prodrug Cmax ratio Topical/Spray ([1]; Day 12): 0.93
AUC0-12 [1, 5]: 0.913 ng·h/mL
Cmax [1, 5]: 0.138 ng/mL
AUC0-12 [1, 6]: 0.953 ng·h/mL
Cmax [1, 6]: 0.143 ng/mL
AUC0-12 ([1]; topical, Day 1, 70 mg spray): 0.279 ng·h/mL
Cmax ([1]; topical, Day 1, 70 mg spray): 0.102 ng/mL
AUC0-12 ([1]; topical, Day 12, 70 mg spray): 1.05 ng·h/mL
Cmax ([1]; topical, Day 12, 70 mg spray): 0.155 ng/mL

COc1ccc2cc([C@H](C)C(=O)O)ccc2c1 [Naproxen]
difference from placebo, sign and symptoms of OA (Osteoarthritis [2]; 500 mg BID oral, Week 12): −5.8
patients improved by 2 grades or more from baseline (physician's global assessment) (Osteoarthritis [2]; 500 mg BID): 33%
Mean ± SEM WOMAC Osteoarthritis Index Composite Score Change from Baselines (Osteoarthritis [2]; 500 mg, BID, orally, 12 Weeks, scale 0 to 96): −11.9 ± 1.29
Patient's Assessment of Arthritis Pain (VAS 0-100 mm), change (Osteoarthritis [3]): −37.5 mm
average daily paracetamol use ([4]; naproxen group): 670 mg

COc1ccc2cc([C@H](C)C(=O)OCCCCO[N+](=O)[O-])ccc2c1 [naproxcinod]
decrease of paracetamol use vs placebo group ([4]; active groups): 19.2% to 24.9
